In ChEMBL document CHEMBL3085687, “Gymnopalynes A and B, chloropropynyl-isocoumarin antibiotics from cultures of the basidiomycete Gymnopus sp” (J Nat Prod, 2013):
≈ marks a conversion by molar mass, not a printed value. Calls of active or inactive are those of the source. The calls are words filed in the database; no cut-off is given here.

Key:
Pseudomonas aeruginosa [1] = test: Antibacterial activity against Pseudomonas aeruginosa DSM 50071 assessed as growth inhibition up to 66.6 ug/mL; type: functional, organism-based
Mucor hiemalis = test: Antifungal activity against Mucor hiemalis DSM 2656 assessed as growth inhibition; type: functional
Nocardia sp. [2] = test: Antibacterial activity against Nocardia sp. DSM 43069 assessed as growth inhibition up to 66.6 ug/mL; type: functional, organism-based
[3] = test system: Schizosaccharomyces pombe; test: Antifungal activity against Schizosaccharomyces pombe DSM 70572 assessed as growth inhibition up to 66.6 ug/mL; type: functional, organism-based
Candida albicans [4] = test: Antifungal activity against Candida albicans DSM 1665 assessed as growth inhibition up to 66.6 ug/mL; type: functional, organism-based
[5] = Antifungal activity against Trichosporon oleaginosus DSM 11815 assessed as growth inhibition up to 66.6 ug/mL; type: functional; conditions: Cutaneotrichosporon oleaginosum
Paenibacillus polymyxa [6] = test: Antibacterial activity against Paenibacillus polymyxa DSM 36 assessed as growth inhibition up to 66.6 ug/mL; type: functional
Escherichia coli [7] = test: Antibacterial activity against Escherichia coli DSM 1116 assessed as growth inhibition up to 66.6 ug/mL; type: functional, organism-based
[8] = test system: Mycolicibacterium diernhoferi; test: Antibacterial activity against Mycobacterium diernhoferi DSM 43524 assessed as growth inhibition up to 66.6 ug/mL; type: functional, organism-based
L929 = test: Cytotoxicity against mouse L929 cells; type: cell-based
Micrococcus luteus [9] = test: Antibacterial activity against Micrococcus luteus DSM 20030 assessed as growth inhibition up to 66.6 ug/mL; type: functional, organism-based; conditions: NCTC 2665
Aspergillus clavatus [10] = test: Antifungal activity against Aspergillus clavatus DSM 816 assessed as growth inhibition up to 66.6 ug/mL; type: functional, organism-based
Rhodotorula glutinis [11] = test: Antifungal activity against Rhodotorula glutinis DSM 10134 assessed as growth inhibition up to 66.6 ug/mL; type: functional, organism-based
Eremothecium coryli [12] = test: Antifungal activity against Nematospora coryli DSM 6981 assessed as growth inhibition up to 66.6 ug/mL; type: functional, organism-based
Pimelobacter simplex [13] = test: Antibacterial activity against Nocardioides simplex DSM 20130 assessed as growth inhibition up to 66.6 ug/mL; type: functional
[14] = test system: Chromobacterium violaceum; test: Antibacterial activity against Chromobacterium violaceum DSM 30191 assessed as growth inhibition; type: functional
[15] = Antifungal activity against Penicillium capsulatum DSM 2210 assessed as growth inhibition up to 66.6 ug/mL; type: functional
Wickerhamomyces anomalus [16] = test: Antifungal activity against Pichia anomala DSM 6766 assessed as growth inhibition up to 66.6 ug/mL; type: functional, organism-based
Amorphotheca resinae [17] = test: Antifungal activity against Hormoconis resinae DSM 1203 assessed as growth inhibition up to 66.6 ug/mL; type: functional, organism-based
Staphylococcus aureus [18] = test: Antibacterial activity against Staphylococcus aureus DSM 346 assessed as growth inhibition up to 66.6 ug/mL; type: functional, organism-based
Eremothecium coryli [19] = test: Antifungal activity against Nematospora coryli DSM 6981 assessed as growth inhibition; type: functional
[20] = test system: Schizosaccharomyces pombe; test: Antifungal activity against Schizosaccharomyces pombe DSM 70572 assessed as growth inhibition; type: functional
Pimelobacter simplex [21] = test: Antibacterial activity against Nocardioides simplex DSM 20130 assessed as growth inhibition; type: functional
Aspergillus clavatus [22] = test: Antifungal activity against Aspergillus clavatus DSM 816 assessed as growth inhibition; type: functional
Nocardia sp. [23] = test: Antibacterial activity against Nocardia sp. DSM 43069 assessed as growth inhibition; type: functional
Rhodotorula glutinis [24] = test: Antifungal activity against Rhodotorula glutinis DSM 10134 assessed as growth inhibition; type: functional
Pseudomonas aeruginosa [25] = test: Antibacterial activity against Pseudomonas aeruginosa DSM 50071 assessed as growth inhibition; type: functional
Amorphotheca resinae [26] = test: Antifungal activity against Hormoconis resinae DSM 1203 assessed as growth inhibition; type: functional
[27] = Antifungal activity against Trichosporon oleaginosus DSM 11815 assessed as growth inhibition; type: functional; conditions: Cutaneotrichosporon oleaginosum
Escherichia coli [28] = test: Antibacterial activity against Escherichia coli DSM 1116 assessed as growth inhibition; type: functional
Micrococcus luteus [29] = test: Antibacterial activity against Micrococcus luteus DSM 20030 assessed as growth inhibition; type: functional; conditions: NCTC 2665
Staphylococcus aureus [30] = test: Antibacterial activity against Staphylococcus aureus DSM 346 assessed as growth inhibition; type: functional
[31] = test system: Mycolicibacterium diernhoferi; test: Antibacterial activity against Mycobacterium diernhoferi DSM 43524 assessed as growth inhibition; type: functional
Paenibacillus polymyxa [32] = test: Antibacterial activity against Paenibacillus polymyxa DSM 36 assessed as growth inhibition; type: functional
Wickerhamomyces anomalus [33] = test: Antifungal activity against Pichia anomala DSM 6766 assessed as growth inhibition; type: functional, organism-based
[34] = Antifungal activity against Penicillium capsulatum DSM 2210 assessed as growth inhibition; type: functional
Candida albicans [35] = test: Antifungal activity against Candida albicans DSM 1665 assessed as growth inhibition; type: functional, organism-based

For `O=C1O[C@H](C#CCCl)Cc2ccccc21`, the “growth inhibition (GI)” value (Pseudomonas aeruginosa [1]) was “inactive”, the MIC (Mucor hiemalis) was 33.3 µg/mL (≈ 151 µM) and the “growth inhibition (GI)” value (Nocardia sp. [2]) was “inactive”. For the same compound, the “growth inhibition (GI)” value [3] was “inactive”, the “growth inhibition (GI)” value (Candida albicans [4]) was “inactive” and the “growth inhibition (GI)” value [5] was “inactive”. For the same compound, the “growth inhibition (GI)” value (Paenibacillus polymyxa [6]) was “inactive”, the “growth inhibition (GI)” value (Escherichia coli [7]) was “inactive” and the “growth inhibition (GI)” value [8] was “inactive”. For the same compound, the IC50 (L929) was 14 µM, the “growth inhibition (GI)” value (Micrococcus luteus [9]) was “inactive” and the “growth inhibition (GI)” value (Aspergillus clavatus [10]) was “inactive”. For the same compound, the “growth inhibition (GI)” value (Rhodotorula glutinis [11]) was “inactive”, the “growth inhibition (GI)” value (Eremothecium coryli [12]) was “inactive” and the “growth inhibition (GI)” value (Pimelobacter simplex [13]) was “inactive”. For the same compound, the MIC [14] was 33.3 µg/mL (≈ 151 µM), the “growth inhibition (GI)” value [15] was “inactive” and the “growth inhibition (GI)” value (Wickerhamomyces anomalus [16]) was “inactive”. For the same compound, the “growth inhibition (GI)” value (Amorphotheca resinae [17]) was “inactive” and the “growth inhibition (GI)” value (Staphylococcus aureus [18]) was “inactive”.
In the case of `O=c1oc(C#CCCl)cc2ccccc12`, the MIC (Mucor hiemalis) is reported as 16.6 µg/mL (≈ 75.9 µM), the “growth inhibition (GI)” value (Candida albicans [4]) is reported as “inactive” and the “growth inhibition (GI)” value (Paenibacillus polymyxa [6]) is reported as “inactive”. For the same compound, the “growth inhibition (GI)” value (Escherichia coli [7]) was “inactive”, the “growth inhibition (GI)” value [8] was “inactive” and the IC50 (L929) was 3.7 µM. For the same compound, the MIC (Eremothecium coryli [19]) was 16.6 µg/mL (≈ 75.9 µM), the “growth inhibition (GI)” value (Micrococcus luteus [9]) was “inactive” and the MIC [20] was 16.6 µg/mL (≈ 75.9 µM). It also gave an MIC (Pimelobacter simplex [21]) of 33.3 µg/mL (≈ 152 µM), an MIC (Aspergillus clavatus [22]) of 16.6 µg/mL (≈ 75.9 µM) and an MIC (Nocardia sp. [23]) of 67 µg/mL (≈ 306 µM). For the same compound, the MIC [14] was 33.3 µg/mL (≈ 152 µM), the MIC (Rhodotorula glutinis [24]) was 33.3 µg/mL (≈ 152 µM) and the “growth inhibition (GI)” value [15] was “inactive”. The MIC (Pseudomonas aeruginosa [25]) was 67 µg/mL (≈ 306 µM), the “growth inhibition (GI)” value (Wickerhamomyces anomalus [16]) was “inactive” and the MIC (Amorphotheca resinae [26]) was 33.3 µg/mL (≈ 152 µM). The MIC [27] was 33.3 µg/mL (≈ 152 µM) and the “growth inhibition (GI)” value (Staphylococcus aureus [18]) was “inactive”.
For `CN(C)[C@@H]1C(O)=C(C(N)=O)C(=O)[C@@]2(O)C(O)=C3C(=O)c4c(O)cccc4[C@@](C)(O)[C@H]3[C@H](O)[C@@H]12.Cl` [OXYTETRACYCLINE HYDROCHLORIDE], the MIC (Escherichia coli [28]) was 1 µg/mL, the MIC (Micrococcus luteus [29]) was 2.1 µg/mL and the MIC (Staphylococcus aureus [30]) was ≤ 0.25 µg/mL. For the same compound, the MIC [31] was ≤ 0.25 µg/mL, the MIC (Pimelobacter simplex [21]) was 16.6 µg/mL and the MIC (Nocardia sp. [23]) was 0.25 µg/mL. It also gave an MIC (Paenibacillus polymyxa [32]) of 6.7 µg/mL and an MIC [14] of 1 µg/mL.
With GENTAMICIN the MIC (Pseudomonas aeruginosa [25]) was 67 µg/mL.
In the case of NYSTATIN, the MIC (Mucor hiemalis) is reported as 2.1 µg/mL, the MIC (Eremothecium coryli [19]) is reported as 3.3 µg/mL and the MIC [20] is reported as 33.3 µg/mL. The MIC (Aspergillus clavatus [22]) was 2.1 µg/mL, the MIC (Wickerhamomyces anomalus [33]) was 4.2 µg/mL and the MIC (Rhodotorula glutinis [24]) was 0.52 µg/mL. The MIC (Amorphotheca resinae [26]) was < 0.25 µg/mL, the MIC [34] was 16.6 µg/mL and the MIC [27] was 1 µg/mL. It also gave an MIC (Candida albicans [35]) of 4.2 µg/mL.
